Reference: patent publication EP1845096A1, “12-Aza-epothilones, process for their preparation and their use as antiproliferative agents” (ETH Zürich, priority 2006, dated 2007)
Like-named read-outs stand apart in the source and are kept apart here.

Legend:
porcine brain αβ-tubulin = porcine brain αβ-tubulin (Sus scrofa, UniProt P02554); assay: Tubulin polymerization (turbidimetry at 340 nm); format: biochemical
Method: Tubulin is isolated as pure αβ-tubulin from fresh pig brain according to the method of Castoldi and Popov (Protein Expr. Purif. 2003, 32, 83-88). Working stock solutions of αβ-tubulin are stored at -80°C. Freshly thawed αβ-tubulin is centrifuged and then incubated with the compounds to be tested in suitable solvents and buffers, guanosine-5'-triphosphate (GTP), and glutamate in a 96-well plate, as described in more detail below in the Examples. The polymerization is monitored real-time at 340 nm in a temperature-controlled TECAN GeniosPro spectrophotometer. UV absorption of compounds is subtracted from absorption curves.
Tubulin was isolated as pure αβ-tubulin from fresh pig brain according to the method of Castoldi and Popov (Protein Expr. Purif. 2003, 32, 83-88). Fresh brains were obtained from the local slaughterhouse and processed immediately without prior cooling. 150-200 g cleaned pig brain was put into ice-cooled depolymerization buffer (50 mM MES [2-morpholinoethanesulphonic acid], 1 mM CaCl2, adjusted to pH 6.9 with KOH) and homogenized in a Polytron mixer. The homogenate was centrifuged in a Sorvall SLA-1500 rotor at 14500 rpm for 60 min. The supernatant was transferred into an Erlenmeyer flask in high-molarity PIPES buffer (1 M PIPES [1,4-piperazinediethanesulfonic acid], 10 mM MgCl2, 20 mM EGTA [ethylene glycol-bis-2(2-aminoethyl)-tetraacetic acid] adjusted to pH 6.9 with KOH) plus […] (1.5 mM final concentration) and glycerol (98%) ad 300 ml. The resulting suspension was mixed and incubated at 37°C for 1 hour. Aliquots were transferred into ultracentrifuge tubes and centrifuged in a Beckman Ti50.2 rotor at.32500 rpm (96000 g) for 75 min at 30°C. The microtubule protein pellets were resuspended in depolymerization buffer and put on ice prior to ultracentrifugation at 4°C. The procedure was repeated for two polymerization cycles (total of 3 cycles) and the final αβ-tubulin pellets were resuspended in ice-cold Brinkley Buffer (BRB80; 80 mM PIPES, 1 mM MgCl2, 1 mM EGTA adjusted to pH 6.8 with KOH) prior to shock-freezing in liquid nitrogen and subsequent storage at -80°C. αβ-tubulin purity and concentration were determined by SDS-PAGE gel electrophoresis and spectrophotometrically (A = ε x c x d with a given extinction coefficient of 115'000 M^-1cm^-1) at 280 nm. This procedure typically yielded 60-100 mg of αβ-tubulin per 100 g of brain.
Freshly thawed αβ-tubulin was centrifuged at 5000 g for 5 min at 5°C and then incubated with additional BRB80 buffer, drugs, DMSO vehicle, guanosine-5'-triphosphate (GTP) / glutamate (25 mM /2.7 M), respectively, in a 96-well plate in either 50 or 100 µl volumes. Experiments were either carried out in a 96-well quartz plate or in normal 96-well polystyrene plates (Falcon). The polymerization was monitored real-time at 340 nm in a temperature-controlled TECAN GeniosPro spectrophotometer. Depending on the specific experiment, the temperature was set either to room temperature (actual measuring temperature was 24-27°C) or 37°C. […] UV absorption of compounds was subtracted from absorption curves. All experiments, along with both negative (untreated αβ-tubulin) and vehicle controls, were carried out in triplicate. Experiments were performed at least with two different αβ-tubulin batches.

PC-3M = assay: Human cancer cell growth inhibition, methylene blue staining, PC-3M; format: cell-based; settings: read-out: IC50 PC-3M
Method: (§1) Stock solutions of the test compounds (2 mM) are prepared in DMSO and stored at -20°C. Human KB-31 and (multidrug-resistant, P-gp170 expressing) KB-8511 epidermoid carcinoma cells (Akiyama et al., Somat. Cell. Mol. Genetics 1985, 11, 117-120), which are both derivatives of the KB cell line (ATCC) and are human epidermis carcinoma cells, are employed. KB 31 cells may be cultivated in mono-layers using Dulbecco's modified Eagle's medium (D-MEM) with 10% foetal calf serum (M.A. Bioproducts), L-glutamine (Flow), penicillin (50 units/ml) and streptomycin (50 µg/ml) (Flow); they then grow at a duplication time of ca. 22 hours, and their relative plating efficiency is ca. 60%. KB-8511 is a variant derived from the KB-31 cell line, which is obtained using colchicine treatment cycles, and has an approximately 40 times relative resistance to colchicine compared with KB-31 cells. The cells are incubated at 37°C in an incubator with 5% v/v CO2 and at 80% relative humidity with MEMAlpha medium which contains ribonucleosides and desoxyribonucleosides (Gibco BRL), complemented with 10 IU penicillin, 10 µg/ml streptomycin and 5% foetal calf serum. The cells are seeded in a quantity of 1.5 x 10^3 cells/well in 96-well microtitre plates, and incubated over night. Serial dilutions of the test compounds in culture medium are added on day 1. […] After washing, the dye is eluted with 3% HCl and the optical density measured at 665 nm with a GeniosPro plate spectrophotometer (Tecan, Switzerland). IC50 values are determined by adaptation of mathematical curves, using the formula [(OD treated)-(OD start) [/] (OD control)-(OD start)] x 100. The IC50 is defined as the concentration of a test compound at the end of the incubation period, which led to 50% of the cell count per well compared with the control (concentration at semi-maximum inhibition of cell growth).
(§2) The preferred ranges of the IC50 values of compounds of formula (I) are given in square parentheses. A549 (lung; ATCC CCL 185) [0.01 to 100 nM], HCT-116 (colon) [0.05 to 200 nM], and PC-3M cells (prostate, hormone-insensitive derivative derived from PC-3, ATCC CRL 1435) [0.05 to 500 nM] were grown in RPMI-1640 medium supplemented with 10% FBS.

A549 = assay: Human cancer cell growth inhibition, methylene blue staining, A549; format: cell-based
Method: as §1, §2

HCT-116 = assay: Human cancer cell growth inhibition, methylene blue staining, HCT-116; format: cell-based; settings: read-out: IC50 HCT-116
Method: as §1, §2

KB-31 = assay: Human cancer cell growth inhibition, methylene blue staining, KB-31; format: cell-based; settings: read-out: IC50 KB-31
Method: as §1, with “The cells are incubated at 37°C in an incubator with 5% v/v CO2 and at 80% relative humidity with MEMAlpha medium which contains ribonucleosides and desoxyribonucleosides (Gibco BRL), complemented with 10 IU penicillin, 10 µg/ml streptomycin and 5% foetal calf serum.” left out, “night.” for “night. Serial dilutions of the test compounds in culture medium are added on day 1.”, “(OD control)-(OD start)] x 100. The IC50 is defined as the concentration of a test compound at the end of the incubation period, which led to 50% of the cell count per well compared with the control (concentration at semi-maximum inhibition of cell growth).” left out

[1] = test system: drug-sensitive human cancer cells; assay: Potency comparison on drug-sensitive human cancer cell lines (from Table 1); format: cell-based; settings: potency ratio versus reference compound B
Method: as §1, with “The cells are incubated at 37°C in an incubator with 5% v/v CO2 and at 80% relative humidity with MEMAlpha medium which contains ribonucleosides and desoxyribonucleosides (Gibco BRL), complemented with 10 IU penicillin, 10 µg/ml streptomycin and 5% foetal calf serum.” left out, “night.” for “night. Serial dilutions of the test compounds in culture medium are added on day 1.”, “(OD control)-(OD start)] x 100. The IC50 is defined as the concentration of a test compound at the end of the incubation period, which led to 50% of the cell count per well compared with the control (concentration at semi-maximum inhibition of cell growth).” left out

Chain of porcine brain αβ-tubulin (P02554 whole entry): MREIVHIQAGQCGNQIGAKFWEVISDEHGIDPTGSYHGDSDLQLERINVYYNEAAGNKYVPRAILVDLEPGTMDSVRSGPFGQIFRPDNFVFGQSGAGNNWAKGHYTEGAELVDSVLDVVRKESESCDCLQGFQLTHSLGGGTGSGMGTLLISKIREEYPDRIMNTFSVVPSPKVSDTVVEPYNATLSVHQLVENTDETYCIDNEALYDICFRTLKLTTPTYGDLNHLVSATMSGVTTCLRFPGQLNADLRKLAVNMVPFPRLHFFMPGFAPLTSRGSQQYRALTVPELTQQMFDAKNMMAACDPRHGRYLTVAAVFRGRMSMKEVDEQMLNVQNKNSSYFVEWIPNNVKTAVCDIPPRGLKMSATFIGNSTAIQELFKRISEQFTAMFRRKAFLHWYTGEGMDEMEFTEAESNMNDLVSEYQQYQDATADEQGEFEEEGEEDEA
Chain of porcine brain αβ-tubulin (P02550 whole entry partner): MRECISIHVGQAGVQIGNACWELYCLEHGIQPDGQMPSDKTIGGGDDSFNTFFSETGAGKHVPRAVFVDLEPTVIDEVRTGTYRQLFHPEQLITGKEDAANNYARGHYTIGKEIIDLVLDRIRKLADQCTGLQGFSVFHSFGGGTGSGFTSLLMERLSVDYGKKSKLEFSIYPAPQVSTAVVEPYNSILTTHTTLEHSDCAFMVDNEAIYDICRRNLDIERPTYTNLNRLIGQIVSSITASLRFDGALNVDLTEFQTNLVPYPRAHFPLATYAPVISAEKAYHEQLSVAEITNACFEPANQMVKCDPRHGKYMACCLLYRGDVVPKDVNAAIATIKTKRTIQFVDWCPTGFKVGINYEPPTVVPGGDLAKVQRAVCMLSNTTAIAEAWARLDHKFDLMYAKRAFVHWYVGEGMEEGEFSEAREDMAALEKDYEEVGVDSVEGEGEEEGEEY

| SMILES | EC50 (porcine brain αβ-tubulin) | IC50 (PC-3M; PC-3M) | IC50 (A549; A549, read-out: IC50 A549) | IC50 (HCT-116; HCT-116, 72 h) | IC50 (KB-31; KB 3-1, 72 h) | EC50 (porcine brain αβ-tubulin; concentration required to induce 50% of the maximum αβ-tubulin polymerization achievable with the respective compound, 10 µM of porcine brain αβ-tubulin, turbidity at 340 nm, mean ± standard deviation, read-out: EC50 Tubulin polymerization) | more potent against drug-sensitive human cancer cells than aza-epothilone B [1] | IC50 (PC-3M; PC-3M: prostate, cells exposed, mean of at least three experiments ± standard deviation) | IC50 (KB-31; KB 3-1, KB-31: cervical (or cervix), parental line, cells exposed for 72 h) | IC50 (A549; A549: lung, cells exposed, mean of at least three experiments ± standard deviation, read-out: IC50 A549) | IC50 (HCT-116; HCT-116: colon, cells exposed for 72 h, mean of at least three experiments ± standard deviation) |
| --- | --- | --- | --- | --- | --- | --- | --- | --- | --- | --- | --- |
| C/C(=C\c1csc(C)n1)[C@@H]1C[C@@H]2O[C@@H]2CCC[C@H](C)[C@H](O)[C@@H](C)C(=O)C(C)(C)[C@@H](O)CC(=O)O1 [C, Epothilone A, reference compound] | 4600 ± 500 nM | 3.4 ± 0.4 nM | 3.2 ± 0.5 nM | 2.2 ± 0.3 nM |  |  |  |  |  |  |  |
| C/C(=C\c1csc(C)n1)[C@@H]1CCN(C(=O)OC(C)(C)C)CCC[C@H](C)[C@H](O)[C@@H](C)C(=O)C(C)(C)[C@@H](O)CC(=O)O1 [B, reference compound] | 5600 ± 400 nM | 126 ± 22 nM | 130 ± 24 nM | 110 ± 19 nM | 31 nM |  |  |  |  |  |  |
| Cc1nc2cc([C@@H]3CCN(C(=O)OC(C)(C)C)CCC[C@H](C)[C@H](O)[C@@H](C)C(=O)C(C)(C)[C@@H](O)CC(=O)O3)ccc2n1C [Compound 1, (2S,9S,10S,11R,14S)-tert-butyl-2-(1,2-dimethyl-1H-benzo[d]imidazol-5-yl)-10,14-dihydroxy-9,11,13,13-tetramethyl-12,16-dioxo-1-oxa-5-azacyclohexadecane-5-carboxylate] |  |  |  |  |  | 3900 ± 600 nM | > 60 fold | 2.3 ± 0.6 nM | 0.35 nM | 1.9 ± 0.4 nM | 1.6 ± 0.5 nM |
| Cc1nc2cc([C@@H]3CCN(C(=O)OCC(F)(F)F)CCC[C@H](C)[C@H](O)[C@@H](C)C(=O)C(C)(C)[C@@H](O)CC(=O)O3)ccc2n1C [Compound 3] | 5100 ± 500 nM | 6.3 ± 2.1 nM | 11.5 ± 1.8 nM | 17.1 ± 3.3 nM |  |  |  |  |  |  |  |
| Cc1nc2cc([C@@H]3CCN(C(=O)OC(C)(C)C)C/C=C/[C@H](C)[C@H](O)[C@@H](C)C(=O)C(C)(C)[C@@H](O)CC(=O)O3)ccc2n1C [A, (2S,9S,10S,11R,14S,E)-tert-butyl-2-(1,2-dimethyl-1H-benzo[d]imidazol-5-yl)-10,14-dihydroxy-9,11,13,13-tetramethyl-12,16-dioxo-1-oxa-5-azacyclohexadec-7-ene-5-carboxylate, reference compound] | 9100 ± 700 nM | 973 ± 64 nM | 920 ± 85 nM | 1010 ± 71 nM |  |  |  |  |  |  |  |
| Cc1nc2cc([C@@H]3CCN(c4ccc([N+](=O)[O-])c5nonc45)CCC[C@H](C)[C@H](O)[C@@H](C)C(=O)C(C)(C)[C@@H](O)CC(=O)O3)ccc2n1C [Compound 17, (2S,9S,10S,11R,14S)-2-(1,2-dimethyl-1H-benzo[d]imidazol-5-yl)-10,14-dihydroxy-9,11,13,13-tetramethyl-5-(7-nitrobenzo[c][1,2,5]oxadiazol-4-yl)-1-oxa-5-azacyclohexadecane-12,16-dione] | 7200 ± 600 nM | 244 ± 45 nM | 329 ± 237 nM | 206 ± 8 nM |  |  |  |  |  |  |  |
| CCOC(=O)N1CCC[C@H](C)[C@H](O)[C@@H](C)C(=O)C(C)(C)[C@@H](O)CC(=O)O[C@H](c2ccc3c(c2)nc(C)n3C)CC1 [Compound 2] | 5400 ± 400 nM | 12.3 ± 1.1 nM | 18 ± 3.1 nM | 23.9 ± 2.9 nM |  |  |  |  |  |  |  |
